The numbers were not newly measured in patent US12048727B2, “Synergistic formulation against acne and a process for the preparation thereof” (COUNCIL OF SCIENTIFIC & INDUSTRIAL RESEARCH, priority 2019, dated 2024), which cites them from elsewhere.

The structures appear in SMILES notation.

This data set relates to P. acnes strains. The settings on record: Indian population.

Turning to `CC[C@H]1OC(=O)[C@H](C)[C@@H](O[C@H]2C[C@@](C)(OC)[C@@H](O)[C@H](C)O2)[C@H](C)[C@@H](O[C@@H]2O[C@H](C)C[C@H](N(C)C)[C@H]2O)[C@](C)(O)C[C@@H](C)C(=O)[C@H](C)[C@@H](O)[C@]1(C)O` [erythromycin], the resistance of antibiotics was 98%. Consider `CC[C@H]1OC(=O)[C@H](C)[C@@H](O[C@H]2C[C@@](C)(OC)[C@@H](O)[C@H](C)O2)[C@H](C)[C@@H](O[C@@H]2O[C@H](C)C[C@H](N(C)C)[C@H]2O)[C@](C)(O)C[C@@H](C)CN(C)[C@H](C)[C@@H](O)[C@]1(C)O` [azithromycin], for which the resistance of antibiotics is on record as 100%.
